pIC50: −log10 of the molar value.
Tests used:
[1] = tested on: Aβ42; assay: Method 2: Aβ42 Alphalisa in supernatant of SKNBE2 cells carrying APP 695-wild type (Table 7c); type: cell-based; conditions: Method 2, Alphalisa, overnight incubation
Outline: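 SKNBE2 cells expressing wild-type APP695 incubated overnight at 37° C with test compound, 10^4 cells/well. Supernatant Aβ42 (C-terminal JRF/cAβ42/26 with N-terminal JRF/AβN/25) and Aβtotal (JRF/AβN/25 with 4G8) quantified by AlphaLISA. IC50 from 4-parameter fit of percent of untreated control.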

[2] = tested on: Aβtotal; assay: In vivo efficacy: Aβtotal lowering in brain after single oral dose (Table 8); conditions: mouse brain soluble fraction, ELISA, compared to untreated animals
Excerpt: To determine whether acute administration of an Aβ42 lowering agent would reduce Aβ42 levels in vivo, non-transgenic rodents, e.g. mice or rats were used. Alternatively, two to three month old Tg2576 mice expressing APP695 containing the “Swedish” variant can be used or a transgenic mouse model developed by Dr. Fred Van Leuven (K.U.Leuven, Belgium) and co-workers, with neuron-specific expression of a clinical mutant of the human amyloid precursor protein [V7171] (Moechars et al., 1999 J. Biol. Chem. 274, 6483). Young transgenic mice have high levels of Aβ in the brain but no detectable Aβ deposition. At approximately 6-8 months of age, the transgenic mice start to display spontaneous, progressive accumulation of β-amyloid (Aβ) in the brain, eventually resulting in amyloid plaques within the subiculum, hippocampus and cortex. Animals treated with the Aβ42 lowering agent were examined and compared to those untreated or treated with vehicle and brain levels of soluble Aβ42 and total Aβ would be quantitated by standard techniques, for example, using ELISA. Treatment periods varied from hours to days and were adjusted based on the results of the Aβ42 lowering once a time course of onset of effect could be established.
A typical protocol for measuring Aβ42 lowering in vivo is shown but it is only one of many variations that could be used to optimize the levels of detectable Aβ. For example, Aβ42 lowering compounds were formulated in 20% of Captisol® (a sulfobutyl ether of β-cyclodextrin) in water or 20% hydroxypropyl β cyclodextrin. The Aβ42 lowering agents were administered as a single oral dose or by any acceptable route of administration to overnight fasted animals. After four hours, the animals were sacrificed and Aβ42 levels were analysed.
Blood was collected by decapitation and exsanguinations in EDTA-treated collection tubes. Blood was centrifuged at 1900 g for 10 min at 4° C. and the plasma recovered and flash frozen for later analysis. The brain was removed from the cranium and hindbrain. The cerebellum was removed and the left and right hemisphere were separated. The left hemisphere was stored at −18° C. for quantitative analysis of test compound levels. The right hemisphere was rinsed with phosphate-buffered saline (PBS) buffer and immediately frozen on dry ice and stored at −80° C. until homogenization for biochemical assays.
Mouse brains were resuspended in 10 volumes of 0.4% DEA (diethylamine)/50 mM NaCl pH 10 (for non-transgenic animals) or 0.1% 3-[(3-cholamidopropyl)-dimethyl-ammonio]-1-propanesulfonate (CHAPS) in tris buffered saline (TBS) (for transgenic animals) containing protease inhibitors (Roche-11873580001 or 04693159000 per gram of tissue, e.g. for 0.158 g brain, add 1.58 ml of 0.4% DEA. All samples were sonicated for 30 sec on ice at 20% power output (pulse mode). Homogenates were centrifuged at 221.300×g for 50 min. The resulting high speed supernatants were then transferred to fresh tubes and were optionally further purified before the next step. A portion of the supernatant was neutralized with 10% 0.5 M Tris-HCl and this was used to quantify Aβtotal.
The obtained supernatants were purified with Water Oasis HLB reverse phase columns (Waters Corp., Milford, Mass.) to remove non-specific immunoreactive material from the brain lysates prior subsequent Aβ detection. Using a vacuum manifold, all solutions were passed through the columns at a rate of approximately 1 ml per minute, so the vacuum pressure was adjusted accordingly throughout the procedure. Columns were preconditioned with 1 ml of 100% MeOH, before equilibration with 1 ml of H2O. Non-neutralized brain lysates were loaded onto the columns. The loaded samples were then washed twice with the first wash performed with 1 ml of 5% MeOH, and the second wash with 1 ml of 30% MeOH. Finally, the Aβ was eluted from the columns and into 100×30 mm glass tubes, with a solution of 90% MeOH with 2% NH4OH. […]

Compound | pIC50 [1] | pIC50 ([1]; Homo sapiens) | Aβtotal (% Ctrl)_Mean [2]
COc1cc(Nc2cccc3c2nc(CCC(F)(F)F)n3C)ccc1-c1ocnc1C [Compound 11] | – | 6.44 | 99 % Ctrl
Cc1ncoc1-c1ccc(Nc2cccc3c2nc(-c2ccc(F)cc2)n3C)nc1 [Compound 10] | – | 5.76 | 109 % Ctrl
COc1cc(Nc2cccc3c2nc(-c2ccc(F)cc2)n3C)ccc1-c1cnc(C)o1 [Compound 16] | – | 7.80 | 95 % Ctrl
COc1cc(Nc2cccc3c2nc(-c2ccc(F)cc2)n3C)ccc1-c1ocnc1C [Compound 12] | – | 7.46 | 101 % Ctrl
Cc1ncc(-c2ccc(Nc3nccc4c3nc(-c3ccc(F)cc3)n4C)cc2F)o1 [Compound 17] | – | 6.78 | 109 % Ctrl
Cc1ncc(-c2ccc(Nc3cccc4c3nc(-c3ccc(F)cc3)n4C(C)C)cn2)o1 [Compound 18] | – | 7.70 | 94 % Ctrl

Continued, in another order:

pIC50 [1] | pIC50 ([1]; Homo sapiens) | Compound | Aβtotal (% Ctrl)_Mean [2]
5.13 | – | COc1cc(Nc2nc(C(F)(F)F)cn3cc(C)nc23)ccc1-c1cnc(C)o1 [Compound 170] | 99 % Ctrl
6.55 | – | COc1cc(Nc2cc(C(F)(F)F)nn3cc(C)nc23)ccc1-c1cnc(C)o1 [Compound 195] | 99 % Ctrl
7.85 | – | COc1cccc(-c2nc3c(Nc4ccc(-c5cnc(C)o5)nc4)cc(F)cc3n2C)c1 [Compound 105] | 96 % Ctrl
7.39 | – | COc1cc(Nc2cncc3c2nc(-c2ccc(F)cc2)n3C)ccc1-c1cnc(C)o1 [Compound 186] | 82 % Ctrl

— patent publication US8946426B2, “Substituted bicyclic heterocyclic compounds as gamma secretase modulators” (Janssen Pharmaceuticals, Inc., priority 2009, dated 2015)
